PMC5148682 (European journal of medicinal chemistry, 2016)

How the values were obtained:
[1] = molecular target: E. coli topoisomerase I (Escherichia coli, UniProt P06612); test: E. coli topoisomerase I relaxation activity inhibition assay; assay type: biochemical
[2] = molecular target: T1, Human topoisomerase I (Homo sapiens, UniProt P11387); test: Human topoisomerase I relaxation inhibition assay; assay type: biochemical
T1 sequence (P11387 1-765): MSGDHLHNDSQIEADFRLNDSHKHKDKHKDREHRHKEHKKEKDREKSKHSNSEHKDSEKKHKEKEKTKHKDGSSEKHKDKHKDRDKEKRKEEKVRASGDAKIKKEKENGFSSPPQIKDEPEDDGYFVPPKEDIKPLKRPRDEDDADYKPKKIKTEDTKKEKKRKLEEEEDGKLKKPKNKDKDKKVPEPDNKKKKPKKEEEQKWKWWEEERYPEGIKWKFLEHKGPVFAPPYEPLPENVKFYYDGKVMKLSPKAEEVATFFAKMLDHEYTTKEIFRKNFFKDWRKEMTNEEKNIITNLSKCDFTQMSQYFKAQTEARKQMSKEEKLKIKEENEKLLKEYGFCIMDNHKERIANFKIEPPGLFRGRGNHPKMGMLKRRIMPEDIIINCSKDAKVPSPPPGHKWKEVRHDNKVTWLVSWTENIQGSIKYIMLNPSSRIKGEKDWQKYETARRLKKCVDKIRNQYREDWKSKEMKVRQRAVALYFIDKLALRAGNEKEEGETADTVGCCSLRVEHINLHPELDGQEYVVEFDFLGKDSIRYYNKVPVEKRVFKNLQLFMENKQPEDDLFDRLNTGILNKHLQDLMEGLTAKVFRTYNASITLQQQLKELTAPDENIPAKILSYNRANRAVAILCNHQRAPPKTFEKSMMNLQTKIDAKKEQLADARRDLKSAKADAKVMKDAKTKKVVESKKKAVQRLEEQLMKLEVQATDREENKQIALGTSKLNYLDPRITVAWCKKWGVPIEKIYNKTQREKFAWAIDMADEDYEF

[3] = system: M tuberculosis (H37Rv); test: MIC by modified microplate Alamar blue assay; assay type: cell-based
[4] = system: E. coli (MG1655) WT; test: MIC by broth microdilution, wild-type E. coli; details: Escherichia coli, MG1655, read-out: Whole cell based antibacterial activity (MIC, µM) E. coli (MG1655) WT

E. coli topoisomerase I, sequence (P06612 whole entry): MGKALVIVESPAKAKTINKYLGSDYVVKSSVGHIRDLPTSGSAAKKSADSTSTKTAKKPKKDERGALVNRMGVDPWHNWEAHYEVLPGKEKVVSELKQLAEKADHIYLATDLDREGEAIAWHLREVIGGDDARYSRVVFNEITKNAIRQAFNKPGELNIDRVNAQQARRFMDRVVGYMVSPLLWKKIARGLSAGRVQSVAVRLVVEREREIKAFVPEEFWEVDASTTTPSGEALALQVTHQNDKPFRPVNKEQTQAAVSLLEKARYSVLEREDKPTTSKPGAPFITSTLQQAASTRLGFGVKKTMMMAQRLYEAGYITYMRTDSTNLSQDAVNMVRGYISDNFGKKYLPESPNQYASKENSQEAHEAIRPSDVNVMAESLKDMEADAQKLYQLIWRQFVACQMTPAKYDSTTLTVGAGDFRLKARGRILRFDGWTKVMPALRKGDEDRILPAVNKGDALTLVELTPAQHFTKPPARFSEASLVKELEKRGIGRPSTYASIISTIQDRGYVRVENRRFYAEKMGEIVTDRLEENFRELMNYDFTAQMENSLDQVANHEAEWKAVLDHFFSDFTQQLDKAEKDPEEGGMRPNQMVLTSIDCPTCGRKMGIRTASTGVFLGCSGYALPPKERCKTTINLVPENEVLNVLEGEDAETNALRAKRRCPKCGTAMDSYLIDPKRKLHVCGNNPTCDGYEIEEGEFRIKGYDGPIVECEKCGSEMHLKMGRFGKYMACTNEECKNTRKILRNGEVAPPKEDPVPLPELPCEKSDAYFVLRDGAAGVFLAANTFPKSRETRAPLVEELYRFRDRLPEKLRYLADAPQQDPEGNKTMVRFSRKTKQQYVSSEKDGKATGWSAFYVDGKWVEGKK

In the case of `CCOC(=O)c1cn2c3c(c(F)c(F)cc3c1=O)Oc1cc(C(F)(F)F)ccc1-2` [Compound 6c, Ethyl 5,6-difluoro-3-oxo-9-(trifluoromethyl)-3H–pyrido[3,2,1-kl]phenoxazine-2-carboxylate], the IC50 ([1]; pIC50, experimental, pIC50 = – logIC50, E. coli topoisomerase I) is reported as over 125 µM.
Work on `O=C(O)c1cn2c3c(c(F)c(F)cc3c1=O)Oc1cc(C(F)(F)F)ccc1-2` [Compound 7c, 5,6-Difluoro-3-oxo-9-(trifluoromethyl)-3H–pyrido[3,2,1-kl]phenoxazine-2-carboxylic acid] yielded an IC50 ([1]; IC50 (µM), E. coli topoisomerase I, value as used in the CoMFA dataset (Table 2)) of over 125 µM.
`CC(=O)c1ccc2c(c1)Oc1c(F)c(F)cc3c(=O)c(C(=O)O)cn-2c13` [Compound 7d, 9-Acetyl-5,6-difluoro-3-oxo-3H–pyrido[3,2,1-kl] phenoxazine-2-carboxylic acid] was tested, and the “fold less active than 1 against E. coli topoisomerase I” value [1] was 8–16 fold.
`O=C(O)c1cn2c3c(c(F)c(F)cc3c1=O)Oc1cc([N+](=O)[O-])c(Cl)cc1-2` [Compound 7e, 10-Chloro-5,6-difluoro-9-nitro-3-oxo-3H–pyrido[3,2,1-kl]phenoxazine-2-carboxylic acid] was tested, and the “fold less active than 1 against E. coli topoisomerase I” value [1] was 8–16 fold.
With `Nc1ccc2c(c1)Oc1c(NCCN3CCOCC3)c(F)cc3c(=O)c(C(=O)O)cn-2c13` [Compound 11h, 9-Amino-5-fluoro-6-((2-morpholinoethyl)amino)-3-oxo-3H–pyrido[3,2,1-kl]phenoxazine-2-carboxylic acid] the IC50 [2] was 7.8 to 15.6 µM.
In the case of `Nc1ccc2c(c1)Oc1c(N3CC[C@H](N)C3)c(F)cc3c(=O)c(C(=O)O)cn-2c13` [Compound 17a, (S)-9-amino-6-(3-aminopyrrolidin-1-yl)-5-fluoro-3-oxo-3H–pyrido[3,2,1-kl]phenoxazine-2-carboxylic acid], the “Whole cell based antibacterial activity (MIC, µM) M tuberculosis (H37Rv)” value ([3]; MABA) is reported as over 63.1 µM and the MIC ([3]; Mycobacterium tuberculosis, H37RV, read-out: Whole cell based antibacterial activity (MIC, µM) M tuberculosis (H37Rv)) is reported as over 63.1 µM.
Work on `Nc1ccc2c(c1)Oc1c(N3CC[C@@H](N)C3)c(F)cc3c(=O)c(C(=O)O)cn-2c13` [Compound 17b, (R)-9-amino-6-(3-aminopyrrolidin-1-yl)-5-fluoro-3-oxo-3H–pyrido[3,2,1-kl]phenoxazine-2-carboxylic acid] yielded an MIC [4] of over 200 µM.
